Columns and labels:
Type in all cases: cell-based
human VDR receptor = target: T1, human VDR receptor (Homo sapiens, UniProt P11473); experiment: VDR agonist activity, co-transfection of HeLa cells with human VDR expression vector and reporter plasmid p240Hase-CAT; conditions: CAT reporter (rat 24-hydroxylase promoter), 18 hours of treatment
T1 construct: expressed in transfected cells; host or cells: HeLa
T1 sequence (P11473 1-427): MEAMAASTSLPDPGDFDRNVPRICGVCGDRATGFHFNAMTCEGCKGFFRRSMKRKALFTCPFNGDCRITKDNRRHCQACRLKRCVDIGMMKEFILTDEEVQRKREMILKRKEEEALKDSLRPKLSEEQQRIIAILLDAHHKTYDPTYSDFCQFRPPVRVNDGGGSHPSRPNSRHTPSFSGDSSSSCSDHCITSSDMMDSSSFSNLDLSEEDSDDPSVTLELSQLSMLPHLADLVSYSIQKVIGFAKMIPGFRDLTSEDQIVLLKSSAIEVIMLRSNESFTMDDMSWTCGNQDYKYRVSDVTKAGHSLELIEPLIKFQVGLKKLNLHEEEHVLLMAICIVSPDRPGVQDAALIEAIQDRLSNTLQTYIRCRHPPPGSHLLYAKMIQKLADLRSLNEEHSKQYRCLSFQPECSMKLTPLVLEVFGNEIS
Procedure: By way of example, the VDR agonist activity may be tested on the HeLa cell line, by co-transfecting a human VDR receptor expression vector and the reporter plasmid p240Hase-CAT. The agonist activity may also be characterized in this co-transfection system by the determination of the dose necessary to reach 50% of the maximum activity of the product (AC50).
18 hours after co-transfection, the compound to be tested is added to the medium. After 18 hours of treatment, the assay of the CAT activity of the cellular lysates is carried out by an ELISA test (Enzyme Linked Immuno Sorbent Assay, marketed by Roche Molecular Biochemicals). The agonist activity may be characterized in this co-transfection system by determining the dose required to reach 50% of the maximum activity of the compound tested (AC50).

HL60 cells = experiment: Activity on the differentiation of HL60 cells (NBT reduction); conditions: Homo sapiens, HL-60, 96 h, 4 days of culture, NBT-positive cells counted
From the text: The biological properties analogous to vitamin D may also be measured by the capacity of the product to induce differentiation of promyelocytic leukaemia cells HL60. The protocol and the results obtained with the compounds according to the invention are described in Example 6 of the present application.
Calcitriol induces the differentiation of promyelocytic leukaemia cells (HL60) into monocytes/macrophages. This differentiation-inducing effect is a well characterized marker for cellular vitamin D. One of the most important anti-microbial products of macrophages is hydrogen peroxide, which may be analyzed experimentally by the reduction of NBT (Nitroblue Tetrazolium).
The method used is the following: the HL60 cells are inoculated into 6-well plates and then treated immediately with a test compound. After 4 days of culture, the cells are incubated with phorbol TPA ester and NBT for a short period and the differentiated cells, that is to say which are positive to NBT are counted.

[1] = system: normal human keratinocytes; experiment: Activity on the proliferation of human keratinocytes (BrdU incorporation); conditions: Keratinocyte, 120 h, 5 days of culture, read-out: IC50 - proliferation of the KHNs
Procedure: The biological properties which are similar to vitamin D may also be measured by the capacity of the product to inhibit the proliferation of normal human keratinocytes (NHK in culture). The product is added to NHKs cultured under conditions promoting the proliferative state. The product is left in contact with the cells for 5 days. The number of proliferative cells is measured by incorporation of bromodeoxyuridine (BRdU) into DNA. The protocol for this test and the results obtained with the compounds according to the invention are described in Example 8 of the present application.
The method used is the following: normal human keratinocytes are inoculated at low density into a 24-well plate. After 4 hours, the compounds to be tested are added to the culture medium. After 5 days of culture, the proliferation of the kerátinocytes is determined by incorporating 5-bromo-2′-deoxyuridine (BrdU) into the DNA. The quantity of BrdU incorporated is then measured using the ELISA test (Enzyme Linked Immuno Sorbent Assay, marketed by Roche Molecular Biochemicals).

SMILES | AC50 (human VDR receptor) | AC50 (HL60 cells) | IC50 [1]
CCC(O)(CC)COc1ccc(CCCc2ccc(CO)c(CO)c2)cc1C [Compound of Example 4, (4-{3-(4-(2-Ethyl-2-hydroxy-butoxy)-3-methyl-phenyl]-propyl)-2-hydroxymethyl-phenyl)-methanol] | > 3000 nM |  | 
C=C1/C(=C\C=C2/CCC[C@]3(C)[C@@H]([C@H](C)CCCC(C)(C)O)CC[C@@H]23)C[C@@H](O)C[C@@H]1O [Calcitriol, 1,25-dihydroxyvitamin D3, reference compound] |  | 10.7 nM | 
CCc1cc(CCCc2ccc(CO)c(CO)c2)ccc1OCC(O)(CC)CC [Compound of Example 3, (4-{3-(3-Ethyl-4-(2-ethyl-2-hydroxy-butoxy)-phenyl]-propyl}-2-hydroxymethyl-phenyl)-methanol] | 1210 nM |  | 
Cc1cc(CCCc2ccc(CO)c(CO)c2)ccc1OCC(O)C(C)(C)C (stereo not drawn) [Compound of Example 2, 1-{4-[3-(3,4-Bis-hydroxymethyl-phenyl)-propyl]-2-methyl-phenoxy}-3,3-dimethyl-butan-2-ol] | 172 nM | 2500 nM | 140 nM
CCc1cc(CCCc2ccc(CO)c(CO)c2)ccc1OCC(O)C(C)(C)C (stereo not drawn) [Compound of Example 1, 1-{4-[3-(3,4-Bis-hydroxymethyl-phenyl)-propyl]-2-ethyl-phenoxy}-3,3-dimethyl-butan-2-ol] | 40 nM | 312 nM | 150 nM

From US7312249B2, “Vitamin D analogues” (Galderma Research & Development, priority 2002, dated 2007)
